Earlier results as cited in patent publication US20070281007A1, “Mucoadhesive Oral Formulations of High Permeability, High Solubility Drugs” (priority 2004, published 2007).
Where two headings read alike, the source gives them in different places.

SMILES | bioavailability (at best, 900 mg dose, given three times a day) [%] | bioavailability (in vivo) [%]
NCC1(CC(=O)O)CCCCC1 [gabapentin] | 60 | 
CC(C)[C@H](N)C(=O)OCCOCn1cnc2c(=O)[nH]c(N)nc21 [valacyclovir] |  | ~50
